Assay results from publication PMC6844378, “Structure activity relationship studies on Amb639752: toward the identification of a common pharmacophoric structure for DGKα inhibitors” (Journal of Enzyme Inhibition and Medicinal Chemistry, 2019).

Experiments:
DGKα = DGKα (Homo sapiens, UniProt P23743); experiment: DGK assay on OST-DGKα enriched MDCK homogenates; assay type: biochemical; parameters: expressed in transfected cells; host or cells: MDCK cells (vector-infected, doxycycline-induced), crude homogenate; conditions: for remaining activity at 100 µM: percentage of residual DGKα activity compared to DMSO control, OST-DGKα overexpressing cell lysates, saturating DAG and ATP, read-out: Residue activity at 100 µM; for IC50: residual OST-DGKα activity at 0.1, 1.0, 10.0 and 100.0 µM
Procedure: Madin-Darby canine kidney (MDCK) cells stably expressing One Strep Tag DGKα (OST-DGKα) were prepared by infecting MDCK cells with a vector expressing an inducible OST tagged DGKα constructs. MDCK cells infected with empty vector were used as controls. MDCK cells were cultured in MEM (minimal essential medium) with 5% FBS (foetal bovine serum) and 1% antibiotic–antimycotic solution. Routinely, cells were splitted every 3–4 days with trypsin–EDTA 0.25% in standard 100 mm dishes.
Large cultures of MDCK cells for enzyme preparation were done by plating 5 × 10^6 cells in 245 mm^2 dishes. Once they reached nearly 70% confluence, cells were treated with doxycycline (1 µg/mL, two days). […] Cells were collected with a rubber scraper, homogenised by passing them through a 29 G-needle syringe 20 times and stored in aliquots at –80 °C. Presence of OST-DGKα was confirmed by western blotting and enzyme assay, transduced DGKα has an activity >100 folds the endogenous DGK.
Essentionally, the same procedure was followed as reported previously in Velnati et al.[9] In brief, DGK activity was assayed by measuring initial velocities (5 min at 27 °C) in presence of saturating substrate concentrations. Reaction conditions: 0.9 µg/µL 1,2-dioleoyl-sn-glycerol, 5 mM ATP, 0.01 µCi/µL [γ^32P]-ATP, 1 mM sodium orthovanadate, 10 mM MgCl2, 1.2 mM EGTA in 7.5 mM Hepes pH 8[12]. Reaction mixture is assembled mixing enzyme (24.5 µL of homogenate), 100× inhibitor or DMSO (0.5 µL), 5× ATP solution (10 µL of 25 mM ATP, 0.05 µCi/µL [γ^32P]-ATP (Perkin-Elmer, Milan, Italy), 5 mM sodium orthovanadate, 50 mM MgCl2), and 3.3× DAG solution (15 µL of 3 µg/µL 1,2-dioleoyl-sn-glycerol resuspended by sonication in 4 mM EGTA in 25 mM Hepes pH 8). The reaction was stopped after 5 min by adding 200 µL of freshly prepared 1 M HCl and lipid was extracted by adding 200 µL of CH3OH:CHCl3 1:1 solution and vortexing for 1 min. The two phases were separated by centrifugation (12,000 RCF for 2 min). Twenty-five microlitres of the lower organic phase was spotted in small drops on silica TLC plates. TLC was run 10 cm and dried before radioactive signals were detected by GS-250 molecular imager and was quantified by quantity one (Bio-Rad, Hercules, CA) software assuring the absence of saturated spots.
Percentage residual activity was calculated as follows: (OST-DGKα homogenate with inhibitor – vector homogenate)/(OST-DGKα homogenate with DMSO – vector homogenate)×100.
Data for the screen on OST-DGKα homogenates are the mean of duplicates. The compounds showing inhibitory activity in this assay were tested >4 times and the mean ± SEM is reported.
To calculate IC50 values of active inhibitors, the inhibitor activity was measured at least three times at 0.1, 1.0, 10.0, and 100.0 µM concentration. Data were analysed using [inhibitor] vs. normalised response parameters with least square [ordinary] curve fitting method in GraphPad PRISM 8.0 software (GraphPad Software, La Jolla, CA) mentioning 95% confidence interval and IC50 values always greater than 0.0. […] In all the experiments, the data were normalised with the controls.
Each inhibitor was tested in duplicate at least once, and DGKα activity was expressed as percentage of residual DGKα activity compared to DMSO control in the same assay. Assay uses OST-DGKα overexpressing cell lysates in presence of saturating exogenous DAG and ATP. We considered R59022 (commercially available) and the lead compound Amb63975230 as our reference molecules.
To measure the inhibitor potency, we determined the IC50 values for the compounds that resulted active when tested at 100 µM by measuring the residual OST-DGKα activity over a dose range of inhibitor concentrations (0.1 µM, 1.0 µM, 10.0 µM, and 100.0 µM).

SAP-deficient T cells = experiment: RICD assay in SAP silenced T cells; assay type: cell-based, human; conditions: 10 µM, 30 min pre-treatment; OKT3 10 ng/mL, 24 h
Procedure: PBL were isolated from healthy anonymous human donors by Ficoll-Paque PLUS (GE Healthcare, Chicago, IL) density gradient centrifugation, washed, and resuspended at 2 × 10^6 cell/mL in RPMI-GlutaMAX containing 10% heat inactivated FCS, 2 mM glutamine, and 100 U/mL of penicillin and streptomycin. T cells were activated with 1 µg/mL anti-CD3 (UCHT1) and anti-CD28 (clone CD28.2) antibodies. After three days, activated T cells were washed and cultured in medium additionated of 100 IU/mL rhIL-2 (Peprotech, Rocky Hill, NJ) at 1.2 × 10^6 cells/mL for ≥7 days by changing media for every 2–3 days.
Activated human PBLs were transfected with 200 pmol of siRNA oligonucleotides specific for the target protein (Stealth Select siRNA; Life Technologies, Carlsbad, CA) or a non-specific control oligo (Life Technologies, Carlsbad, CA). Transient transfections were performed using Amaxa nucleofector kits for human T cells (Lonza, Basel, Switzerland) and the Amaxa Nucleofector II or 4D systems (programmes T-20 or EI-115). Cells were cultured in IL-2 (100 IU/mL) for four days to allow target gene knockdown. Knockdown efficiency was periodically evaluated by Western blotting.
To test restimulation induced cell death, activated T cells (10^5 cells/well) were plated in triplicate in 96-well round-bottom plate and treated with anti-CD3 (clone OKT3) (10 ng/mL) in RPMI-GlutaMAX supplemented with 100 IU/mL rhIL-2 for 24 h. In these assays, inhibitors (10 µM) were added 30 min before the restimulation with OKT3. 24 h after treatment, cells were stained with 20 ng/mL propidium iodide and collected for a constant time of 30 s per sample on Attune Nxt Flow Cytometer (Thermo Fisher Scientific, Waltham, MA). Cell death is expressed as % cell loss and calculated as: % cell loss=(1−(number of viable cells in sample/number of viable cells in control)×100)
Results were expressed as mean ± standard error of the mean (SEM). We always compared controls and SAP silenced lymphocytes from the same donors as there is a large individual variability in RICD sensitivity.
To evaluate inhibitor efficacy in physiological context, we modelled XLP-1 by silencing SAP in primary peripheral blood T lymphocytes (PBLs) and restimulating them with anti-CD3 antibody (OKT3 10 ng/mL, 24 h). We pre-treated the cells with the indicated inhibitors for 30 min at a concentration of 10 µM[8].
Figure 9. DGKα inhibitors partially restores apoptosis in SAP deficient lymphocytes. […] After 4 days, the cells were restimulated with CD3 agonist OKT3 (10 ng/mL) in presence of respective inhibitor. Vehicle (DMSO) was used as control. Twenty-four hours later, the % of cell loss was evaluated by PI staining. Data are the mean ± SEM of nine independent experiments performed in triplicate.

Sequence of DGKα (P23743 whole entry): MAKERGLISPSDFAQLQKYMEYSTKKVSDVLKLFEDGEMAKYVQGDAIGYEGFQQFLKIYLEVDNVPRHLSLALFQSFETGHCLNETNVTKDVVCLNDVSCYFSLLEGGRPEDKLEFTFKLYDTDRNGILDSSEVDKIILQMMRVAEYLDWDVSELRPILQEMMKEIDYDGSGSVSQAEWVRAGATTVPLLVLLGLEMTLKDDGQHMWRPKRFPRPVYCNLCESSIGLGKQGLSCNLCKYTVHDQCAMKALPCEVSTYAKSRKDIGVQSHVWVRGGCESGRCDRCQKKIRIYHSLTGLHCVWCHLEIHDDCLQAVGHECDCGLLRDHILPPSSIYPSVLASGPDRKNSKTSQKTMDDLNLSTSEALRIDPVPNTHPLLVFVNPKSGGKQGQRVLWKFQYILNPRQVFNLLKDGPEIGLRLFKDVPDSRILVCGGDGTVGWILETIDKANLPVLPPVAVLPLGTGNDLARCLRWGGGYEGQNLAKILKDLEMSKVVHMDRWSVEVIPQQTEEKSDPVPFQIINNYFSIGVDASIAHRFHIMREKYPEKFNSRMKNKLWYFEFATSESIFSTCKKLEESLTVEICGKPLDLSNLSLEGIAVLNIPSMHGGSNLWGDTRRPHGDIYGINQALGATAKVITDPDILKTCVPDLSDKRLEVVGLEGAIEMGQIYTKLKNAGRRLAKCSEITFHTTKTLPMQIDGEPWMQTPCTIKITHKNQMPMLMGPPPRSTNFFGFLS

| SMILES | remaining activity at 100 µM (DGKα) | melting point | also measured |
| --- | --- | --- | --- |
| Cn1c(-c2ccccc2)c(C(=O)CN2CCN(C(=O)c3ccco3)CC2)c2ccccc21 [Amb18718] | 135% |  |  |
| Cc1[nH]c2ccccc2c1C(=O)C(C)N1CCN(C(=O)c2ccccc2)CC1 (centres unmarked) [Amb37496] | 114% |  |  |
| O=C(c1c[nH]c2ccccc12)C(c1ccccc1)N1CCN(C(=O)c2ccco2)CC1 (centres unmarked) [Amb94966] | 196% |  |  |
| O=C(CN1CCN(C(=O)c2ccco2)CC1)c1c(-c2ccccc2)[nH]c2ccccc12 [Amb98433] | 81% |  |  |
| CC(C(=O)c1c[nH]c2ccccc12)N1CCN(C(=O)c2ccco2)CC1 (centres unmarked) [Amb626577] | 127% |  |  |
| COc1ccc2[nH]cc(C(=O)CN3CCN(C(=O)c4ccco4)CC3)c2c1 [Amb629700] | 101% |  |  |
| COc1ccc2[nH]c(C)c(C(=O)CN3CCN(C(=O)c4ccco4)CC3)c2c1 [Amb687392] | 115% |  |  |
| COc1ccc2c(C(=O)CN3CCN(C(=O)c4ccco4)CC3)c(C)n(C)c2c1 [Amb726054] | 126% |  |  |
| Cc1c(C(=O)CN2CCN(C(=O)c3ccco3)CC2)c2ccccc2n1C [Amb731111] | 130% |  |  |
| Cc1ccc2[nH]cc(C(=O)CN3CCN(C(=O)c4ccco4)CC3)c2c1 [Amb758592] | 150% |  |  |
| Cc1ccc2c(C(=O)C(C)N3CCN(C(=O)c4ccco4)CC3)c(C)[nH]c2c1 (centres unmarked) [Amb758897] | 67% |  |  |
| Cc1[nH]c2ccccc2c1C(=O)C(c1ccccc1)N1CCN(C(=O)c2ccco2)CC1 (centres unmarked) [Amb1926062] | 88% |  |  |
| Cc1[nH]c2c(C)ccc(C)c2c1C(=O)CN1CCN(C(=O)c2ccco2)CC1 [Amb22018852] | 160% |  |  |
| O=c1c2ccccc2[nH]c(=S)n1CCC1CCC(=C(c2ccc(F)cc2)c2ccc(F)cc2)CC1 (centres unmarked) [Compound 1] |  |  | inhibitory activity on the enzyme (DGKα) (DGKα): totally devoid of inhibitory activity |
| O=C(CN1CCN(C(=O)c2ccco2)CC1)c1c[nH]c2ccccc12 [Compound 2] | 135% |  |  |
| Cc1ccc2c(C(=O)CN3CCN(C(=O)c4ccccc4)CC3)c(C)[nH]c2c1 [Compound 8, 2-(4-Benzoylpiperazin-1-yl)-1-(2,6-dimethyl-1H-indol-3-yl)ethan-1-one] | 5% | 213.8 to 214.3 °C | IC50 (DGKα): 3.2 µM |
| COc1ccc(C(=O)N2CCN(CC(=O)c3c(C)[nH]c4cc(C)ccc34)CC2)cc1 [Compound 12, 1-(2,6-Dimethyl-1H-indol-3-yl)-2-(4-(4-methoxybenzoyl)piperazin-1-yl)ethan-1-one] | 6% | 219.9 to 220.8 °C | IC50 (DGKα): 3.6 µM |
| Cc1ccc2c(C(=O)CN3CCN(C(=O)c4ccc(C#N)cc4)CC3)c(C)[nH]c2c1 [Compound 13, 4-(4-(2-(2,6-Dimethyl-1H-indol-3-yl)-2-oxoethyl)piperazine-1-carbonyl)benzonitrile] | 14% | 243.9 to 244.8 °C | IC50 (DGKα): 6.9 µM |
| Cc1ccc2c(C(=O)CN3CCN(C(=O)c4cccs4)CC3)c(C)[nH]c2c1 [Compound 14, 1-(2,6-Dimethyl-1H-indol-3-yl)-2-(4-(thiophene-2-carbonyl)piperazin-1-yl)ethan-1-one] | 6% |  | IC50 (DGKα): 3 µM; effect on RICD in control siRNA-transfected cells (SAP-deficient T cells): slightly reducing |
| Cc1ccc2c(C(=O)CN3CCN(C(=O)c4cccnc4)CC3)c(C)[nH]c2c1 [Compound 15, 1-(2,6-Dimethyl-1H-indol-3-yl)-2-(4-nicotinoylpiperazin-1-yl)ethan-1-one] | 89% | 216.2 to 216.8 °C |  |
| Cc1ccc2c(C(=O)CN3CCN(C(=O)c4ccccc4C)CC3)c(C)[nH]c2c1 [Compound 16, 1-(2,6-Dimethyl-1H-indol-3-yl)-2-(4-(2-methylbenzoyl)piperazin-1-yl)ethan-1-one] | 27% | 200.5 to 201.6 °C | IC50 (DGKα): 32.8 µM |
| COc1cccc(C(=O)N2CCN(CC(=O)c3c(C)[nH]c4cc(C)ccc34)CC2)c1 [Compound 17, 1-(2,6-Dimethyl-1H-indol-3-yl)-2-(4-(3-methoxybenzoyl)piperazin-1-yl)ethan-1-one] | 41% | 209.8 to 210.4 °C |  |
| Cc1ccc2c(C(=O)CN3CCN(C(=O)c4ccc(F)c(F)c4)CC3)c(C)[nH]c2c1 [Compound 18, 2-(4-(3,4-Difluorobenzoyl)piperazin-1-yl)-1-(2,6-dimethyl-1H-indol-3-yl)ethan-1-one] | 47% | 233.8 to 235 °C |  |
| Cc1ccc2c(C(=O)CN3CCN(C(=O)c4cccc(Cl)c4)CC3)c(C)[nH]c2c1 [Compound 19, 2-(4-(3-Chlorobenzoyl)piperazin-1-yl)-1-(2,6-dimethyl-1H-indol-3-yl)ethan-1-one] | 26% | 222.3 to 223.5 °C | IC50 (DGKα): 49.7 µM |
| Cc1ccc2c(C(=O)CN3CCN(C(=O)C4CCCC4)CC3)c(C)[nH]c2c1 [Compound 21, 2-(4-(Cyclopentanecarbonyl)piperazin-1-yl)-1-(2,6-dimethyl-1H-indol-3-yl)ethan-1-one] | 39% |  |  |
| CCCCCCC(=O)N1CCN(CC(=O)c2c(C)[nH]c3cc(C)ccc23)CC1 [Compound 22, 1-(4-(2-(2,6-Dimethyl-1H-indol-3-yl)-2-oxoethyl)piperazin-1-yl)heptan-1-one] | 48% |  |  |
